Measured values taken from patent publication US20050054097A1, “EX-VIVO expansion of hematopoietic system cell populations in mononuclear cell cultures” (priority 2002, published 2005).

Assays:
[1] = system: cord blood mononuclear cells (MNC); assay: FACS analysis of reselected CD34+ cell subsets (CD34+CD38-, CD34+Lin-) from MNC cultures; format: cell-based, human; conditions: for CD34+Lin- cells by FACS from reselected CD34+ cell fraction: MNC with RAR antagonists and cytokines; for cumulative number of CD34+CD38- cells: cytokines
Procedure: Surface antigen analysis: Cells were harvested, washed with a PBS solution containing 1% bovine sera albumin (BSA) and 0.1% sodium azide (Sigma), ind stained at 4° C. for 60 minutes with fluorescein isothiocyanate or phycoerythrin-conjugated antibodies (all from Immunoquality Products, the Netherlands). The cells were then washed with the same buffer and analyzed by FACS caliber or Facstarplus flow cytometers. Cells were passed at a rate of 1000 cells/second, using saline as the sheath fluid. A 488 nm argon laser beam served as the light source for excitation. Emission of ten thousand cells was measured using logarithmic amplification, and analyzed using CellQuest software.
Reselected CD34+ cell subsets were stained for the following combination of antigens: CD34PE/CD38FITC and CD34PE/38-, 33-, 14-, 15-, 3, 4, 61, 19 (Lin) FITC.
FACS analysis results are given as percentage values of cells. Absolute numbers of subsets are calculated from the absolute number of CD34+ cells.
Determination of baseline levels of CD34^+/CD38− and CD34^+/Lin^− cells was conducted as follows: CD34+ cells were purified from 3 thawed cord blood units and stained for the above markers. The mean of these experiments was considered as the baseline value.
(§1) Total cell counts, numbers of CD34+ cells and subsets, and CFU numbers are presented as cumulative numbers, with the assumption that the cultures had not been passaged; i.e., the number of cells per ml were multiplied by the number of passages performed.

[2] = system: cord blood mononuclear cells (MNC); assay: Ex-vivo expansion of CD34+ cells in mononuclear cell (MNC) cultures; CD34+ cells reselected and counted; format: cell-based, human; conditions: for cumulative number of CD34+ cells per culture bag: cytokines, eight weeks incubation; for Number of CD34+ cells (×10^4) / Portion of CD34+ cells (%): 8 weeks
[3] = system: cord blood mononuclear cells (MNC); assay: as above; format: cell-based, human; conditions: for cumulative number of CD34+ cells: MNC culture, cytokines, TEPA 5-10 μM for first three weeks
Procedure: Sample collection and processing: Samples were obtained from umbilical cord blood after a normal full-term delivery and were frozen within 24 hours pospartum. The blood cells were thawed in Dextran buffer and incubated for 15 hours in MEM (Biological Industries, Israel) supplemented with 10% fetal calf serum (FCS; Biological Industries). The cells were then layered on Ficoll-Hypaque (density 1.077 gram/ml; Sigma) and centrifuged at 400 g for 30 minutes at room temperature. The mononuclear cells in the interface layer were then collected, washed three times in phosphate-buffered saline (PBS; Biological Industries), and re-suspended in PBS containing 0.5% human serum albumin (HSA). The cells were then split into two fractions, the first being the mononuclear cells (MNC) fraction and the second fraction was used for purifying CD34^+ cells by immunomagnetic separation using the “MiniMACS CD34^+ progenitor cell isolation kit” (Miltenyi Biotec, Auburn, Calif.) according to the manufacturer's recommendations. The purity of the CD34^+ cells obtained ranged between 95% and 98%, based on Flow Cytometry evaluation.
Ex-vivo expansion of hematopoietic stem cells: The Mononuclear cells (MNC), obtained as described hereinabove, were plated in 24-well Costar Cell Clusters (Corning Inc., Corning, N. Y.) or seeded in Culture Bags (American Fluoroseal Corp.), with alpha minimal essential medium (a-MEM) supplemented with 10% fetal bovine serum (FBS, Biological Industries), at a concentration of about 10^6 cells/ml. […]
Determination of CD34+ cells and subsets: CD34+ surface expression on short and long-term cultures initiated either with purified CD34+ cells or the entire MNC fraction was determined as follows: CD34+ cells were positively reselected (Miltenyi kit) and counted. […]
Mononuclear cells (MNC) were seeded in culture bags and were provided with nutrients and cytokines (50 ng/ml FLt3, IL-6, TPO and SCF) as described above. […] The cultures were analyzed weekly during a 12-week period for the number of cells, CFUc, CD34+ and CD34+CD38− cells. […]

[4] = system: cord blood mononuclear cells (MNC); assay: Colony forming unit (CFU) ability of MNC cultures; format: cell-based, human; conditions: MNC culture, cytokines, TEPA 5-10 μM for first three weeks
Procedure: as §1
Assaying Colony Forming Unit (CFU) ability: Cells were cloned in semi-solid, methylcellulose-containing medium supplemented with 2 IU/ml erythropoietin (Eprex, Cilag AG Int., Switzerland), stem cell factor and IL-3, both at 20 ng/ml, and G-CSF and GM-CSF, both at 10 ng/ml (all from Perpo Tech). Cultures were incubated for 14 days at 37° C., 5% CO2 in a humidified atmosphere.
Determination of LTC-CFUc values: The ability of the cultures to maintain self-renewal was measured by determination of the content of colony forming unit cells in the long and extended long-term cultures (LTC-CFUc), as described in the references hereinabove.

[5] = system: cord blood mononuclear cells (MNC); assay: Morphological assessment of long-term MNC cultures (May-Grunwald/Giemsa); format: cell-based, human; conditions: long-term TEPA-treated MNC cultures
Excerpt: Morphological assessment: Morphological characterization of the resulting culture populations was accomplished on aliquots of cells deposited on glass slides via cytospin (Cytocentrifuge, Shandon, Runcorn, UK). Cells were fixed, stained with May-Grunwald/Giemsa stain and examined microscopically.

[6] = system: CD34+ cell cultures; conditions: early acting cytokines, 5-10 μM TEPA (b8), atomic absorption; cited from earlier work
[7] = cytokines + RAR antagonist 10^-6 M, 2 weeks
[8] = cytokines + RAR antagonist 10^-6 M, 5 weeks

CCc1ccc(C2=CC(C)(C)Sc3ccc(C#Cc4ccc(C(=O)O)cc4)cc32)cc1 [RAR antagonist]
CD34+Lin- cells by FACS from reselected CD34+ cell fraction ([1]; 2 weeks after initial seeding): 78%
CD34+Lin- cells by FACS from reselected CD34+ cell fraction ([1]; 5 weeks after initial seeding): 24%
% CD34/Lin- [1, 7]: 78.4%
No of CD34+/Lin- × 10^4 [1, 7]: 132.5 × 10^4
% CD34/Lin- [1, 8]: 24.1%
No of CD34+/Lin- × 10^4* [1, 8]: 237.8 × 10^4
No of CD34 cells × 10^4 [2, 7]: 169 × 10^4
No of CD34 cells × 10^4* [2, 8]: 985 × 10^4

NCCNCCNCCNCCN [TEPA, tetraethylenepentamine]
cumulative number of CD34+ cells ([3]; after 2 weeks): non-detectable
cumulative number of CD34+ cells ([3]; after 12 weeks): over 8×10^7 cells/ml
stem and progenitor cells densities versus pre-purified CD34+ cell cultures (not treated with TEPA) ([3]; TEPA-treated MNC cultures, 12-week period): either equalized or surpassed
cumulative number of CD34+CD38- cells ([1]; MNC culture, TEPA 5-10 μM for first three weeks, after 2 weeks): non-detectable
cumulative number of CD34+CD38- cells ([1]; MNC culture, TEPA 5-10 μM for first three weeks, after 12 weeks): 2.5×10^7 cells/ml
number of CD34+ CFUs ([4]; after 2 weeks): non-detectable
number of CD34+ CFUs ([4]; after 10 weeks): 3.2×10^7 cells/ml
morphological analysis of cells from long-term cultures [5]: a high proportion of non-differentiated cells
reduction of cell copper content [6]: 30%

tetraethylenepentamine-copper chelate [Cu-TEPA chelate]
cumulative number of CD34+CD38- cells ([1]; 100 μM Copper-TEPA for first three weeks, eight weeks incubation): 6.1×10^5
Number of CD34/38- cells (×10^4) ([1]; Cu-TEPA chelate 100 μM, 8 weeks): 61 ×10^4
cumulative number of CD34+ cells per culture bag ([2]; 50 μM Copper-TEPA for first three weeks): 12.37×10^6 cells per culture bag
cumulative number of CD34+ cells per culture bag ([2]; 100 μM Copper-TEPA for first three weeks): 32.85×10^6 cells per culture bag
Number of CD34+ cells (×10^4) ([2]; Cu-TEPA chelate 50 μM): 1237.3 ×10^4
Portion of CD34+ cells (%) ([2]; Cu-TEPA chelate 50 μM): 1.4%
Number of CD34+ cells (×10^4) ([2]; Cu-TEPA chelate 100 μM): 3285.3 ×10^4
Portion of CD34+ cells (%) ([2]; Cu-TEPA chelate 100 μM): 1.2%
